How the values were obtained:
[1] = Solubility of POC in solvents (described in words); type: physicochemical
[2] = Pharmacokinetic study after intravenous injection, LC-MS/MS of plasma; type: in vivo; conditions: rat, rats, 4.5 mg/kg
Description: Six rats were given POC (4.5 mg/kg) by intravenous injection, then, an approximately 1.0 ml sample of blood was obtained from the fossa orbitalis vein of rats and placed into heparin–rinsed EP pipes according to a programmed schedule at 3, 5, 10, 20, 30, 45, 60, 120, and 240 min after dosing.
Plasma (80 μL) was mixed with glibenclamide (20 μL) as the internal standard, and then 900 μL of acetonitrile was used to precipitate the protein. All samples were vortex–mixed for 5 min, then centrifuged at 15,000 r/min for 10 min. Then, 800 μL of supernatant was measured, blowed dry by nitrogen, and reconstituted with 100 μL of acetonitrile.
The Thermo Fisher Scientific Hypersil GOLD column (2.1 mm × 100 mm, 1.9 μm) was used as the analytical column; it was maintained at 30°C with 1.0 mmol/L of ammonium acetate (A) and mathanol (B) as the mobile phase, using glibenclamide as the internal standard (IS). The gradient elution program was operated as follows: 0–1.5 min, 55% B–65% B; 1.5–2.5 min, 65% B–80% B; 2.5–3.0 min, 80% B–90% B; 3.0–4.0 min, 90% B; 4.0–4.5 min, 90% B–55% B; 4.5–6.0 min, 55% B. The sample injection volume was 5.0 μL, and the flow rate set at 0.2 ml/min.
Mass spectrometry was operated with multiple reaction monitoring (MRM) in a positive ionization mode. The ion pair of POC is m/z 377.1 and 163.0; the declustering voltage (DP) is 28 eV; and the collision energy (CE) is 30 eV. The ion pair of glibenclamide is m/z 494.1 and 169.0, and the DP is 65 eV, the CE is 50 eV.

[3] = system: IL–6, IL–1β, TNF–α; test: ELISA assay for inflammatory cytokines in brain tissue of MCAO rats; type: in vivo; conditions: versus model group (p < 0.001), paeonol and OS 3 mg/kg, POC 4.5 mg/kg iv, n = 6
Description: (§1) Male Sprague Dawley (SD) rats weighing among 220 g-230 g (Anhui Medicine University, Hefei, China; certificate number: SCXK20190,003) were housed under ad libitum access to food and water with a standardized light-dark cycle condition (25 ± 2°C, 12-hour light/dark cycle). All the experimental protocols were performed in accordance with the Institutional Animal Care and Use Committee of Anhui University of Chinese Medicine (Animal ethics number: AHUCM-rats-2019001). We used the minimal number of study animals (n = 6 rats in each group for different experiments). The rats were fastened upon the operating table in a supine position after being anesthetized with 2% pelltobarbitalum natricum (50 mg/kg). After disinfection of the skin within close proximity of the operative region, the right common carotid artery (CCA), external carotid artery (ECA) and internal carotid artery (ICA) were exposed with blunt dissection. The CCA was temporarily ligated and the ECA were permanently ligated ([Liu et al., 2016]). […] According to the manufacturer's instructions, the levels of inflammatory cytokines (IL - 6, IL-1β, TNF-α; R&D Systems, Minneapolis, MN, United States) and TXA2 (Wuhan ColorfulGene Biological Technology Co., LTD) were detected using the commercial ELISA kits. The resultant colored products were measured the absorbance at 450 nm. […]

[4] = system: TXA2; test: ELISA assay for TXA2 in brain tissue and blood of MCAO rats; type: in vivo; conditions: paeonol and OS 3 mg/kg, POC 4.5 mg/kg iv, n = 6
Description: as §1

solubility in ethyl acetate ([1]; ethyl acetate): slightly soluble
solubility in methanol and ethanol ([1]; methanol and ethanol): easily soluble
solubility in water ([1]; water): almost insoluble or insoluble
AUC(0-t) [2]: 264 ng·h/mL
Cmax [2]: 465 ± 269 ng/mL
clearance [2]: 277 ± 62.3 mL/min/kg
half-life [2]: 53.5 ± 19.6 min
MRT last ([2]; read-out: MRT0-t (converted)): 51.9 min
SMILES: COc1ccc(C(C)=O)c(OC(=O)C=Cc2ccc(Cn3ccnc3)cc2)c1 [POC, paeonol-ozagrel conjugate]
release of inflammatory cytokines (IL–6, IL–1β, TNF–α) in brain tissue [3]: can inhibit the expression of three markers of inflammatory cytokines
levels of TXA2 in blood (plasma) ([4]; blood/plasma): decreasing levels
levels of TXA2 in brain ([4]; brain tissue): decreasing levels

Source: paper PMC7883289, “Synthesis of Paeonol-Ozagrel Conjugate: Structure Characterization and In Vivo Anti-Ischemic Stroke potential” (Frontiers in Pharmacology, 2021)
